Columns and labels:
[1] = test system: human PDAC explants; experiment: Ex vivo human PDAC explants, IHC for pERK and CC3; assay type: cell-based
Method: Explant culture sponges and optimized culture media were prepared as previously described in Hasselluhn and Decker-Farrell et al.^54. Human tissue samples were obtained from de-identified patients undergoing resection surgeries, primarily pancreaticoduodenectomy (Whipple) or distal pancreatectomy, at New York-Presbyterian/Columbia University Irving Medical Center. Upon receipt of a resected human PDAC fragment (n=4), each tissue sample was cut into […] slices using a Compresstome. Any tumor tissue remaining after sectioning was fixed in 4% paraformaldehyde (Santa Cruz Biotechnology, sc-281692) for 2 hours, at 4° C. as the Day 0 control. […] Each well of a 24 well plate contained one explant slice placed between bottom sponge (1 cm^3) and a top sponge (2-3 mm thick). After 24 hours culture, explants were collected and fixed in 4% PFA for 2 hours. Fixed tissue was then transferred to 70% ethanol and paraffin embedded for long-term storage and further analysis. All tissues were fixed for up to 24 hours using 10% neutral buffered formalin and then moved to 70% ethanol for long term storage. All stainings were performed on 4-μm tissue sections. Sections were deparaffinized using a Leica XL ST5010 autostainer, after which slides were subjected to heat-activated epitope retrieval. […] Slides were further blocked in serum for 1 hour, and primary antibodies were added for overnight incubation at 4° C. […] Following incubation, ImmPACT DAB peroxidase (Vector Laboratories, SK-4100) was used to develop the stain and hematoxylin was used as nuclear counterstain. Stained slides were imaged at 40× magnification. Quantitative analyses of IHC images were performed using ImageJ.

[2] = test system: autochthonous KPC pancreatic tumors; conditions: 50 mg/kg q.o.d.
Method: For survival study, KPC mice with 4-7 mm diameter tumors (as measured by ultrasound) were enrolled and treated every other day with Vehicle (n=9) or RMC-7977 (50 mg/kg; n=13). Animal health status and weight were checked daily and ultrasounds were performed every third day to monitor tumor growth. The survival end point was determined by overall health criteria scoring, where end point is determined by a score of 5 or greater based on the following criteria: • Moribund—immediate euthanasia • Abdominal distention due to hemorrhagic ascites—5 pts • Mild difficulty beathing—5 pts • Hypothermia—5 pts • Abdominal distention due to chylous ascites—3 pts • Loss of over 20% enrollment body weight—3 pts • Failure of grasp test—3 pts Jaundice or pallor—3 pts • Weak grasp test—2 pts • Failure to interact with other mice—1 pt • Hunched—1 pt • Pilorection/failure to groom—1 pt
Additional notes were made to better characterize the cause of death upon necropsy, including the presence of macro liver and/or lung metastases, jaundice, and tumor-mediated GI obstructions. Survival is denoted as Kaplan-Meier survival curves compared with a log-rank, Mantel-Cox test. Mice that reached endpoint criteria were sacrificed either at 4 or 24 hours after last dose in a manner consistent with IACUC standards and our own criteria scoring. Tissue was collected at time of necropsy for further analysis.

[3] = test system: autochthonous KPC pancreatic tumors; experiment: One-week study in KPC mice; assay type: in vivo, mouse; conditions: 50 mg/kg q.o.d.
Method: Tumor formation in KPC mice was monitored by bi-weekly palpation. […] Treatments were performed every other day via oral gavage for 1 week. […] Following two consecutive ultrasounds, RMC-7977-treated animals were sacrificed either 4 (n=7) or 24 hours (n=4) after last dose and Vehicle-treated animals were sacrificed between 4-24 hours post last dose. Tissue was harvested and preserved as previously described (See Xenograft studies section). Additional group of KPC mice was also treated with a single dose of RMC-7977 (n=10) or Vehicle (n=3) and tissues were harvested at 4 or 24 hours post dose as previously described.

[4] = test system: Myc protein levels; experiment: Western blot of Myc in resistant and naive KPC cell lines; assay type: cell-based, murine; conditions: 100 nM, 24 hours
Method: Cells were seeded at 7.5×10^5-4×10^6 cells per well in 6-well plates or 100 mm dishes in growth medium. After overnight incubation, indicated compound (RMC-7977, IAG933 or DMSO (0.1% v/v)) were added and incubated for the indicated time points. Cells were washed twice with ice-cold PBS and lysed with NP-40 lysis buffer (Thermo Fisher Scientific, J60766), MSD Tris Lysis Buffer (MSD, R60TX-2), RIPA buffer (50 mM TRIS-HCl, pH 7.5, 150 mM NaCl, 1% NP-40, 0.5% sodium deoxycholate, 0.1% SDS) or a lysis buffer containing 1% Triton X-100, 20 mM Tris-HCl, 150 mM NaCl, and 1 mM EDTA. All lysis buffers were supplemented with protease and phosphatase inhibitors. Lysates were scraped and collected before centrifugation at 21,000×g for 10 minutes at 4° C. The protein-containing supernatants were quantified by BCA assay (Pierce, 23225) and equal quantities of protein were denatured with LDS and reducing agent at 95° C. Samples were resolved on 12% or 4-12% Bis-Tris polyacrylamide gels, then transferred to a nitrocellulose or PVDF membrane using the iBlot 2.0 system or wet transfer. Membranes were blocked in Intercept TBS buffer (LiCor, 927-60001) or 3-5% milk before probing with primary antibodies overnight at 4° C. Secondary antibodies were added as appropriate, and the membranes were imaged on a LiCor Odyssey imager. […]

[5] = Tumor versus blood concentrations, all model systems tested; assay type: in vivo; conditions: BALB/c, C57Bl/6, KPF/FC, mouse, tumor vs whole blood, oral, read-out: Kp (concentration in tumor tissues vs blood)
Method: Whole blood, tumor, colon and skin tissue concentrations of RMC-7977 were determined using liquid chromatography-tandem mass spectrometry (LC-MS/MS) methods. […] After thorough mixing and centrifugation, the supernatant was directly analyzed on a Sciex 6500+ triple quadrupole mass spectrometer equipped with an ACQUITY or Shimadzu UPLC system. An ACQUITY UPLC BEH C18 or C4 […] (2.1×50 mm) column was used with gradient elution for compound separation. RMC-7977 and IS (verapamil or terfenadine) were detected by positive electrospray ionization using multiple reaction monitoring (RMC-7977: m/z 865.4/706.4 or m/z 865.3/833.5; verapamil: m/z 455.2/164.9; terfenadine: m/z 472.3/436.4). […] BA analysis on blood and tissue samples from xenograft models was run at Wuxi AppTec. BA analysis on blood and tissue samples from allograft models and GEMM was run at Revolution Medicines.

[6] = explants treated for 24 hours, 10-100 nM

In the case of `CCn1c(-c2cc(N3CCN(C4CC4)CC3)cnc2[C@H](C)OC)c2c3cc(ccc31)-c1csc(n1)C[C@H](NC(=O)[C@H]1[C@@H]3COC[C@@H]31)C(=O)N1CCC[C@H](N1)C(=O)OCC(C)(C)C2` [RMC-7977], the “apoptosis marker cleaved caspase 3 (CC3) (IHC)” value [1, 6] is reported as “increase”, the “pERK expression (IHC)” value [1, 6] is reported as “concentration-dependent decrease” and the “concentration of maximal changes in pERK and CC3” value ([1]; highest concentration tested) is reported as 100 nM. For the same compound, the “response of the KRASWT explant model” value ([1]; one of the four explant models, KRASWT) was “sensitive”, the “body weights compared with control KPC mice” value [2] was “similar” and the “tumor response by 3D-ultrasound” value [2] was “tumor stabilizations or regressions”. The “increase in median survival compared to controls” value ([2]; KPC mice) was 3.5 fold, the “impact on animal weight” value [3] was “little impact” and the tumor response ([3]; KPC, 129S4/SvJae) was “regressions in most tumors”. The Myc protein levels ([4]; two RMC-7977 Naive lines) was “fully inhibited”, the Myc protein levels ([4]; two Resistant lines) was “incompletely reduced” and the Kp [5] was over 1.

Source: patent US12662707B2, “MYC amplification drives resistance to pan-RAS inhibitors in pancreatic cancer” (The Trustees of Columbia University in the City of New York, priority 2024, dated 2026)
